Assay results from the NIST ThermoML archive (doi:10.1021/je060271a).
± gives the expanded uncertainty stated by the source.

Settings: 323.15 K, Liquid, Vibrating tube method

CCCCCCC(=O)OCC(COC(=O)CCCCCC)(COC(=O)CCCCCC)COC(=O)CCCCCC [pentaerythritol tetraheptanoate]
Settings | mass density [kg/m3]
21056 kPa | 969.3 ± 1.2
21077 kPa | 969.3 ± 1.2
21094 kPa | 969.4 ± 1.2
21132 kPa | 969.3 ± 1.2
21278 kPa | 969.4 ± 1.2
21299 kPa | 969.5 ± 1.2
21316 kPa | 969.5 ± 1.2
21334 kPa | 969.5 ± 1.2
21352 kPa | 969.4 ± 1.2
21372 kPa | 969.6 ± 1.2
21390 kPa | 969.6 ± 1.2
21408 kPa | 969.8 ± 1.2
21430 kPa | 969.6 ± 1.2
21448 kPa | 969.6 ± 1.2
21466 kPa | 969.5 ± 1.2
21483 kPa | 969.6 ± 1.2
21504 kPa | 969.5 ± 1.2
21522 kPa | 969.6 ± 1.2
21540 kPa | 969.7 ± 1.2
21562 kPa | 969.6 ± 1.2
21580 kPa | 969.6 ± 1.2
21601 kPa | 969.7 ± 1.2
21619 kPa | 969.8 ± 1.2
21637 kPa | 969.7 ± 1.2
21659 kPa | 969.7 ± 1.2
21677 kPa | 969.8 ± 1.2
21695 kPa | 969.8 ± 1.2
21716 kPa | 969.7 ± 1.2
21734 kPa | 969.8 ± 1.2
21753 kPa | 969.7 ± 1.2
21775 kPa | 969.9 ± 1.2
21793 kPa | 969.8 ± 1.2
21830 kPa | 969.9 ± 1.2
21852 kPa | 969.8 ± 1.2
21871 kPa | 969.8 ± 1.2
21930 kPa | 970 ± 1.2
21950 kPa | 969.9 ± 1.2
21968 kPa | 969.8 ± 1.2
21990 kPa | 969.9 ± 1.2
22070 kPa | 970 ± 1.2
22089 kPa | 969.9 ± 1.2
22112 kPa | 969.9 ± 1.2
22131 kPa | 970 ± 1.2
22150 kPa | 969.9 ± 1.2
22173 kPa | 970 ± 1.2
22193 kPa | 970 ± 1.2
22213 kPa | 970 ± 1.2
22232 kPa | 970 ± 1.2
22275 kPa | 970.2 ± 1.2
22313 kPa | 970.1 ± 1.2
22336 kPa | 970.1 ± 1.2
22356 kPa | 970.1 ± 1.2
22380 kPa | 970.1 ± 1.2
22399 kPa | 970.2 ± 1.2
22419 kPa | 970.2 ± 1.2
22442 kPa | 970.1 ± 1.2
22463 kPa | 970.2 ± 1.2
22483 kPa | 970.2 ± 1.2
22502 kPa | 970.2 ± 1.2
22522 kPa | 970.2 ± 1.2
22546 kPa | 970.1 ± 1.2
22566 kPa | 970.2 ± 1.2
22585 kPa | 970.4 ± 1.2
22609 kPa | 970.3 ± 1.2
22629 kPa | 970.3 ± 1.2
22653 kPa | 970.3 ± 1.2
22717 kPa | 970.3 ± 1.2
22758 kPa | 970.4 ± 1.2
22779 kPa | 970.4 ± 1.2
22804 kPa | 970.4 ± 1.2
22824 kPa | 970.4 ± 1.2
22848 kPa | 970.5 ± 1.2
22869 kPa | 970.4 ± 1.2
22889 kPa | 970.4 ± 1.2
22913 kPa | 970.4 ± 1.2
23043 kPa | 970.5 ± 1.2
23090 kPa | 970.5 ± 1.2
23337 kPa | 970.7 ± 1.2
23406 kPa | 970.7 ± 1.2
23640 kPa | 970.9 ± 1.2
23662 kPa | 970.8 ± 1.2
23684 kPa | 970.9 ± 1.2
23706 kPa | 970.9 ± 1.2
23734 kPa | 970.9 ± 1.2
23970 kPa | 971.1 ± 1.2
23993 kPa | 971.2 ± 1.2
24020 kPa | 971.1 ± 1.2
24043 kPa | 971 ± 1.2
24070 kPa | 971.1 ± 1.2
24093 kPa | 971.2 ± 1.2
24116 kPa | 971.2 ± 1.2
24143 kPa | 971.2 ± 1.2
24166 kPa | 971.1 ± 1.2
24190 kPa | 971.2 ± 1.2
24215 kPa | 971.1 ± 1.2
24242 kPa | 971.3 ± 1.2
24265 kPa | 971.3 ± 1.2
24289 kPa | 971.3 ± 1.2
24317 kPa | 971.3 ± 1.2
24340 kPa | 971.4 ± 1.2
24364 kPa | 971.3 ± 1.2
24387 kPa | 971.3 ± 1.2
24415 kPa | 971.3 ± 1.2
24466 kPa | 971.4 ± 1.2
24515 kPa | 971.5 ± 1.2
24540 kPa | 971.4 ± 1.2
24564 kPa | 971.4 ± 1.2
24616 kPa | 971.5 ± 1.2
24669 kPa | 971.6 ± 1.2
24770 kPa | 971.5 ± 1.2
25086 kPa | 971.7 ± 1.2
25112 kPa | 971.8 ± 1.2
25142 kPa | 971.7 ± 1.2
25168 kPa | 971.8 ± 1.2
25198 kPa | 971.9 ± 1.2
25224 kPa | 971.9 ± 1.2
25249 kPa | 971.7 ± 1.2
25275 kPa | 971.9 ± 1.2
25306 kPa | 971.9 ± 1.2
25330 kPa | 971.9 ± 1.2
25356 kPa | 971.9 ± 1.2
25439 kPa | 971.9 ± 1.2
25465 kPa | 972 ± 1.2
25496 kPa | 972 ± 1.2
25522 kPa | 972.1 ± 1.2
25549 kPa | 972 ± 1.2
25575 kPa | 972 ± 1.2
25607 kPa | 972.1 ± 1.2
25663 kPa | 972.2 ± 1.2
25691 kPa | 972.2 ± 1.2
25743 kPa | 972.1 ± 1.2
25775 kPa | 972.2 ± 1.2
25801 kPa | 972.2 ± 1.2
26029 kPa | 972.3 ± 1.2
26061 kPa | 972.3 ± 1.2
26121 kPa | 972.4 ± 1.2
26148 kPa | 972.5 ± 1.2
26175 kPa | 972.3 ± 1.2
26208 kPa | 972.5 ± 1.2
26235 kPa | 972.4 ± 1.2
26263 kPa | 972.6 ± 1.2
26296 kPa | 972.3 ± 1.2
26325 kPa | 972.4 ± 1.2
26352 kPa | 972.5 ± 1.2
26386 kPa | 972.5 ± 1.2
26413 kPa | 972.5 ± 1.2
26441 kPa | 972.4 ± 1.2
26475 kPa | 972.6 ± 1.2
26503 kPa | 972.6 ± 1.2
26531 kPa | 972.6 ± 1.2
26559 kPa | 972.6 ± 1.2
26594 kPa | 972.6 ± 1.2
26622 kPa | 972.6 ± 1.2
26658 kPa | 972.7 ± 1.2
26682 kPa | 972.6 ± 1.2
26717 kPa | 972.7 ± 1.2
26745 kPa | 972.7 ± 1.2
26901 kPa | 972.8 ± 1.2
26930 kPa | 972.9 ± 1.2
26959 kPa | 972.9 ± 1.2
26995 kPa | 972.9 ± 1.2
27304 kPa | 973.1 ± 1.2
27340 kPa | 973.1 ± 1.2
27371 kPa | 973 ± 1.2
27401 kPa | 973.1 ± 1.2
27437 kPa | 973.1 ± 1.2
27468 kPa | 973.1 ± 1.2
27498 kPa | 973 ± 1.2
27534 kPa | 973.2 ± 1.2
27632 kPa | 973.3 ± 1.2
27663 kPa | 973.3 ± 1.2
27694 kPa | 973.3 ± 1.2
27794 kPa | 973.3 ± 1.2
27926 kPa | 973.5 ± 1.2
27963 kPa | 973.5 ± 1.2
27996 kPa | 973.5 ± 1.2
28065 kPa | 973.4 ± 1.2
28096 kPa | 973.6 ± 1.2
28128 kPa | 973.5 ± 1.2
28160 kPa | 973.5 ± 1.2
28199 kPa | 973.6 ± 1.2
28231 kPa | 973.6 ± 1.2
28270 kPa | 973.6 ± 1.2
28302 kPa | 973.6 ± 1.2
28334 kPa | 973.7 ± 1.2
28471 kPa | 973.7 ± 1.2
28511 kPa | 973.9 ± 1.2
28544 kPa | 973.6 ± 1.2
28577 kPa | 973.8 ± 1.2
28617 kPa | 973.8 ± 1.2
28650 kPa | 973.8 ± 1.2
28689 kPa | 973.9 ± 1.2
28723 kPa | 973.8 ± 1.2
28864 kPa | 973.9 ± 1.2
29014 kPa | 974 ± 1.2
29565 kPa | 974.4 ± 1.2
29607 kPa | 974.4 ± 1.2
29642 kPa | 974.4 ± 1.2
29686 kPa | 974.4 ± 1.2
29724 kPa | 974.5 ± 1.2
29761 kPa | 974.5 ± 1.2
29798 kPa | 974.5 ± 1.2
29834 kPa | 974.6 ± 1.2
29878 kPa | 974.6 ± 1.2
29915 kPa | 974.6 ± 1.2
29959 kPa | 974.6 ± 1.2
29995 kPa | 974.7 ± 1.2
30032 kPa | 974.6 ± 1.2
30076 kPa | 974.8 ± 1.2
30114 kPa | 974.7 ± 1.2
30151 kPa | 974.7 ± 1.2
30237 kPa | 974.8 ± 1.2
30274 kPa | 974.7 ± 1.2
30312 kPa | 974.8 ± 1.2
30358 kPa | 974.7 ± 1.2
30396 kPa | 974.8 ± 1.2
30434 kPa | 974.9 ± 1.2
32025 kPa | 975.7 ± 1.2
32076 kPa | 975.7 ± 1.2
32119 kPa | 975.8 ± 1.2
32170 kPa | 975.9 ± 1.2
32213 kPa | 975.8 ± 1.2
32256 kPa | 975.9 ± 1.2
32308 kPa | 976 ± 1.2
